Data reported in the supplement of paper PMC11451515.

System: P12-Ichikawa
Experiment: cell viability relative to DMSO control; higher = less cytotoxic
Conditions: 48 h
How it was run: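 Viability is a per-plate percentage relative to DMSO wells, with cell-free wells as background. CellTiter-Glo One luminescence was read after 48 h at 37°C on 1536-well plates (5 μl) of NOMO1 or SEM (500 cells/well) or P12-Ichikawa (1000 cells/well) leukemia cells. The cells had been adapted for at least four passages in each medium and pin-dosed with library compounds in DMSO from 47 μM to 0.79 nM in 11 threefold steps.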

[1] = HPLM + 10% dialyzed FBS, 0.000781 µM
[2] = HPLM + 10% dialyzed FBS, 0.00234 µM
[3] = HPLM + 10% dialyzed FBS, 0.00702 µM
[4] = HPLM + 10% dialyzed FBS, 0.0211 µM
[5] = HPLM + 10% dialyzed FBS, 0.0632 µM
[6] = HPLM + 10% dialyzed FBS, 0.19 µM
[7] = HPLM + 10% dialyzed FBS, 0.569 µM
[8] = HPLM + 10% dialyzed FBS, 1.71 µM
[9] = HPLM + 10% dialyzed FBS, 5.12 µM
[10] = HPLM + 10% dialyzed FBS, 15.4 µM
[11] = HPLM + 10% dialyzed FBS, 46.1 µM
[12] = RPMI 5 mM glucose + 10% FBS, 0.000781 µM
[13] = RPMI 5 mM glucose + 10% FBS, 0.00234 µM
[14] = RPMI 5 mM glucose + 10% FBS, 0.00702 µM
[15] = RPMI 5 mM glucose + 10% FBS, 0.0211 µM
[16] = RPMI 5 mM glucose + 10% FBS, 0.0632 µM
[17] = RPMI 5 mM glucose + 10% FBS, 0.19 µM
[18] = RPMI 5 mM glucose + 10% FBS, 0.569 µM
[19] = RPMI 5 mM glucose + 10% FBS, 1.71 µM
[20] = RPMI 5 mM glucose + 10% FBS, 5.12 µM
[21] = RPMI 5 mM glucose + 10% FBS, 15.4 µM
[22] = RPMI 5 mM glucose + 10% FBS, 46.1 µM
[23] = RPMI 5 mM glucose + 10% dialyzed FBS, 0.000781 µM
[24] = RPMI 5 mM glucose + 10% dialyzed FBS, 0.00234 µM
[25] = RPMI 5 mM glucose + 10% dialyzed FBS, 0.00702 µM
[26] = RPMI 5 mM glucose + 10% dialyzed FBS, 0.0211 µM
[27] = RPMI 5 mM glucose + 10% dialyzed FBS, 0.0632 µM
[28] = RPMI 5 mM glucose + 10% dialyzed FBS, 0.19 µM
[29] = RPMI 5 mM glucose + 10% dialyzed FBS, 0.569 µM
[30] = RPMI 5 mM glucose + 10% dialyzed FBS, 1.71 µM
[31] = RPMI 5 mM glucose + 10% dialyzed FBS, 5.12 µM
[32] = RPMI 5 mM glucose + 10% dialyzed FBS, 15.4 µM
[33] = RPMI 5 mM glucose + 10% dialyzed FBS, 46.1 µM

SMILES	cell viability [1]	cell viability [2]	cell viability [3]	cell viability [4]	cell viability [5]	cell viability [6]	cell viability [7]	cell viability [8]	cell viability [9]	cell viability [10]	cell viability [11]	cell viability [12]	cell viability [13]	cell viability [14]	cell viability [15]	cell viability [16]	cell viability [17]	cell viability [18]	cell viability [19]	cell viability [20]	cell viability [21]	cell viability [22]	cell viability [23]	cell viability [24]	cell viability [25]	cell viability [26]	cell viability [27]	cell viability [28]	cell viability [29]	cell viability [30]	cell viability [31]	cell viability [32]	cell viability [33]
CC1(C)CCC[C@]2(C)[C@H]3CC(=O)O[C@]3(C)CC[C@@H]12	118%	115%	114%	114%	116%	110%	115%	116%	110%	107%	99.1%	121%	120%	122%	120%	119%	124%	119%	109%	109%	111%	93.5%	110%	115%	119%	116%	112%	113%	105%	107%	108%	97.5%	92.4%
COc1ccc(CC2NCCc3cc(OC)c(OC)cc32)cc1OC (configuration not stated)	88.9%	96.3%	98.2%	99.8%	95%	98.9%	97.4%	95.5%	94%	94%	96.7%	85.5%	88.7%	89%	87.1%	83.2%	86%	90.9%	89.2%	82.3%	92.2%	84.8%	95%	92.9%	86.7%	87.9%	82.1%	92.4%	85.3%	88.2%	87.8%	91.3%	82.4%
Cc1nc(NC(=O)N2CCC[C@H]2C(N)=O)sc1-c1ccnc(C(C)(C)C(F)(F)F)c1	96.4%	100%	97.1%	93.3%	97.7%	92.4%	89.8%	87.6%	72.2%	62.9%	83.2%	89.4%	89.2%	95.4%	93.7%	90.6%	86.9%	79.6%	76.2%	57.5%	48.3%	77.8%	97.9%	92.4%	94.4%	91.8%	93.4%	81.5%	86.7%	78.9%	63.7%	51.6%	83.3%
C#Cc1cccc(Nc2ncnc3cc(OCCOC)c(OCCOC)cc23)c1	98.2%	101%	97.2%	89.3%	99.5%	100%	101%	91.3%	88.5%	84.3%	62%	96.6%	92.8%	92.1%	95.5%	95.6%	92%	88.6%	88.4%	78.9%	83.6%	52.5%	96.5%	93.2%	95.5%	91.8%	96.4%	93.3%	86.8%	80.2%	83.3%	78.7%	56.6%
